Results taken from PMC8421423, “Cellular model system to dissect the isoform-selectivity of Akt inhibitors” (Nature Communications, 2021).
Where “and” joins values, the source holds several entries; their conditions need not be identical. Equal entries are not always repeated. Where two headings read alike, the source gives them in different places.

How the values were obtained:
[1] = target: Akt1 (Homo sapiens, UniProt P31749); assay: PhosphoSens continuous fluorometric kinetic enzyme assay
[2] = system: pAkt1; assay: Western blot analysis, PANC1 cells; type: cell-based, human; details: PANC1, 24-h treatment
[3] = target: Akt3 (Homo sapiens, UniProt Q9Y243); assay: PhosphoSens continuous fluorometric kinetic enzyme assay
[4] = target: T1, Akt2 (Homo sapiens, UniProt P31751); assay: as above
Target sequence in this assay (P31751 whole entry): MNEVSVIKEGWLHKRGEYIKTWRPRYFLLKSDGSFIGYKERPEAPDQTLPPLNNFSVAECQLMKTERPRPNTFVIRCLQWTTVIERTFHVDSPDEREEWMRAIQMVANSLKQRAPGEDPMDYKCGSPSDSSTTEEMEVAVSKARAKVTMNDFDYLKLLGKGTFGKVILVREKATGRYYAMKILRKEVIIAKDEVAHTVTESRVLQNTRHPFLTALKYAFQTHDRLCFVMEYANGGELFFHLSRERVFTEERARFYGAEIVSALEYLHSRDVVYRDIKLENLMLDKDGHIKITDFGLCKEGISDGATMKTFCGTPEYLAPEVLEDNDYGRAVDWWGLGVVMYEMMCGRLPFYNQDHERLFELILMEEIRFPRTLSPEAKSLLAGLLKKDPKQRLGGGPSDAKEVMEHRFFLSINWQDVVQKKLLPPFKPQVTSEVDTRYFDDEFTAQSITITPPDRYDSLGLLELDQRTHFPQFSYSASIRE

[5] = target: T1, Akt2; assay: ESI-MS/MS of tryptic digest (modified cysteine residues); type: binding; parameters: AKT2(2–447); His6 with TEV protease recognition site (N, cleaved yes); made in house; host or cells: Spodoptera frugiperda (Sf9); details: 5-fold molar excess of inhibitor
Method: ESI-MS/MS samples were prepared as stated above followed by steps of reduction, alkylation, and tryptic digest. The digested samples were stage tip-purified using C18 tips and according to a protocol described elsewhere. Subsequently, samples were thawed, dissolved in 20 μL of 0.1% TFA in water, sonicated at room temperature for 15 min, and centrifuged at 15,000×g for 1 min shortly before analysis. In all, 3 μL of sample were loaded onto a pre-column cartridge and desalted for 5 min using 0.1% TFA in water as eluent at a flow rate of 30 μL/min. The samples were back-flushed from the pre-column to the nano-HPLC column during the whole analysis. Elution was performed using a gradient starting at 5% B with a final composition of 30% B after 35 min (flow rate 300 nL/min) using 0.1% formic acid in water as eluent A and 0.1% formic acid in acetonitrile as eluent B and a column temperature of 40 °C. […] During the complete gradient cycle, a typical TOP10 shot-gun proteomics method for the MS and MS/MS analysis was used. For full scan MS experiments a mass range of m/z 300–1650 was scanned with a resolution of 70000. MS/MS experiments were followed by up to 10 high energy collision dissociation (HCD) MS/MS scans with a resolution of 17,500 of the most intense at least doubly charged ions. Data evaluation was performed using MaxQuant[50]. […]
Target sequence in this assay (P31751 2-447): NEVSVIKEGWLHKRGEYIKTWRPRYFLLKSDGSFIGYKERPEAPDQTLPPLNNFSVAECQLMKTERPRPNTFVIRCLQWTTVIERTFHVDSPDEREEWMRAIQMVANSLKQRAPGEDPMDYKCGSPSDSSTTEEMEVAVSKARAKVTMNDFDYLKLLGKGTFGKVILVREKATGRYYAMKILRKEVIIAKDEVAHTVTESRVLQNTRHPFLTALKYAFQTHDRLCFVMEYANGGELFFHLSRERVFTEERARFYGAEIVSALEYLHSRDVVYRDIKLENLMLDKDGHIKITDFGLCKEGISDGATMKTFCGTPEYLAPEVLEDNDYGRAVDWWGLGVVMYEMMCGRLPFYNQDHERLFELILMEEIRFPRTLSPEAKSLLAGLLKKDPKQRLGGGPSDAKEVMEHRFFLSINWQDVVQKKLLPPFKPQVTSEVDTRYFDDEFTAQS

[6] = target: T2, Akt3 (Homo sapiens, UniProt Q9Y243, E113A/E114A/E115A); assay: as above; type: binding; details: 5-fold molar excess of inhibitor
T2 construct: AKT3(2–443, E114/115/116A); His6 with TEV protease recognition site (N, cleaved yes); made in house; host or cells: Spodoptera frugiperda (Sf9)
Method: ESI-MS/MS samples were prepared as stated above followed by steps of reduction, alkylation, and tryptic digest. The digested samples were stage tip-purified using C18 tips and according to a protocol described elsewhere. Subsequently, samples were thawed, dissolved in 20 μL of 0.1% TFA in water, sonicated at room temperature for 15 min, and centrifuged at 15,000×g for 1 min shortly before analysis. In all, 3 μL of sample were loaded onto a pre-column cartridge and desalted for 5 min using 0.1% TFA in water as eluent at a flow rate of 30 μL/min. The samples were back-flushed from the pre-column to the nano-HPLC column during the whole analysis. Elution was performed using a gradient starting at 5% B with a final composition of 30% B after 35 min (flow rate 300 nL/min) using 0.1% formic acid in water as eluent A and 0.1% formic acid in acetonitrile as eluent B and a column temperature of 40 °C. […] During the complete gradient cycle, a typical TOP10 shot-gun proteomics method for the MS and MS/MS analysis was used. For full scan MS experiments a mass range of m/z 300–1650 was scanned with a resolution of 70000. MS/MS experiments were followed by up to 10 high energy collision dissociation (HCD) MS/MS scans with a resolution of 17,500 of the most intense at least doubly charged ions. Data evaluation was performed using MaxQuant[50]. Spectra were searched against the specific Akt sequence and a contamination database using a false discovery rate of 1% on peptide and protein level using a decoy database for determination of the false discovery rate. For database search oxidation of methionine and N-terminal acetylation of proteins, carbamidomethylation of cysteines, and artificial modification of cysteines were defined as variable modifications.

[7] = Ki Akt3, Mean, mean of replicates
[8] = Ki Akt3, individual determinations, single replicates
[9] = read-out: kinact /Ki Akt3, individual determinations, single replicates
[10] = read-out: kinact Akt3, Mean, mean of replicates
[11] = read-out: kinact Akt3, individual determinations, single replicates
[12] = Ki Akt2, Mean, mean of replicates
[13] = Ki Akt2, individual determinations, single replicates
[14] = read-out: kinact Akt2, individual determinations, single replicates

Akt1, sequence (P31749 whole entry): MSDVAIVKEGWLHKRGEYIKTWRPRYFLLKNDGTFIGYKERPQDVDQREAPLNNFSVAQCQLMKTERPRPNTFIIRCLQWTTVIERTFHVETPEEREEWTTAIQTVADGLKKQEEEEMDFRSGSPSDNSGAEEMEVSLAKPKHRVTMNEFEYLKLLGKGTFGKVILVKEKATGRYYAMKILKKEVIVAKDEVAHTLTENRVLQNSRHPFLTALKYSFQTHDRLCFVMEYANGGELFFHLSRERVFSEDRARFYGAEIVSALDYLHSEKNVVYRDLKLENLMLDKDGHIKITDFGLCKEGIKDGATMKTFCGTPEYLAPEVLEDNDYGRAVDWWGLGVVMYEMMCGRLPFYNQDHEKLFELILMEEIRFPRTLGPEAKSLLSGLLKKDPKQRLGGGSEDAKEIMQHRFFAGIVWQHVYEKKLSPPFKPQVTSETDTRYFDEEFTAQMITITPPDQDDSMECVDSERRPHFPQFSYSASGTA
Akt3 (Homo sapiens, UniProt Q9Y243), sequence (Q9Y243 whole entry): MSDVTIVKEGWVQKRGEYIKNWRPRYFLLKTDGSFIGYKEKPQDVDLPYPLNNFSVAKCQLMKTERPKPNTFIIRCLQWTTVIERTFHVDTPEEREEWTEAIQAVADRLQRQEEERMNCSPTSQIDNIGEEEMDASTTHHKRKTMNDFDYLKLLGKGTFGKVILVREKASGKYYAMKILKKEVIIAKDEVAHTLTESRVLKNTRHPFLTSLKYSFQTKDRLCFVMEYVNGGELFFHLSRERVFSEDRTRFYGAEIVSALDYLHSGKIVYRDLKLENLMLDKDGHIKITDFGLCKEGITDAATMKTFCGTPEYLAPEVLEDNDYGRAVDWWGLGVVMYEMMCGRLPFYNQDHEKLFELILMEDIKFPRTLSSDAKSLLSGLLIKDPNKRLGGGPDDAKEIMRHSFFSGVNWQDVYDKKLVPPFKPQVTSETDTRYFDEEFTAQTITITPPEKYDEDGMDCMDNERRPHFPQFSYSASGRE
T2 sequence (Q9Y243 2-443 E113A/E114A/E115A): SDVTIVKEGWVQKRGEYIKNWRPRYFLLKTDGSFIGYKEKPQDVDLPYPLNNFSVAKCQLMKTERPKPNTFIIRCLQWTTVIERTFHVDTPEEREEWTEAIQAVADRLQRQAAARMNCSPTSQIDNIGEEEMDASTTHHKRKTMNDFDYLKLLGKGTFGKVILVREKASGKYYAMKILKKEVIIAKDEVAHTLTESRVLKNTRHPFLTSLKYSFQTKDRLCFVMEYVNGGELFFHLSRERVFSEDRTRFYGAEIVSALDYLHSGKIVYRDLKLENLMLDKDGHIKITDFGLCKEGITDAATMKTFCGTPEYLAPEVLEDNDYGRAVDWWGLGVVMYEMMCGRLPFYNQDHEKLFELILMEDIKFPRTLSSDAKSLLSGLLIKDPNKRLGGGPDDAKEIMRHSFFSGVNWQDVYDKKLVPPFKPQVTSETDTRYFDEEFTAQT

Row | Compound | pAkt1 level (immunoblot) [2] | Ki ([3]; Ki Akt3) | Ki [3, 7] | Ki [3, 8] | kinact/KI ([3]; read-out: kinact /Ki Akt3) | kinact/KI [3, 9] | kinact ([3]; read-out: kinact Akt3) | kinact [3, 10] | kinact [3, 11] | kinact Akt3, individual determinations ([3]; single replicates) | Ki ([4]; Ki Akt2) | Ki [4, 12] | Ki [4, 13] | kinact/KI ([4]; read-out: kinact /Ki Akt2) | kinact ([4]; read-out: kinact Akt2) | kinact [4, 14] | kinact Akt2, individual determinations ([4]; single replicates) | further results
1 | C=CC(=O)Nc1ccc2[nH]c(=O)n(C3CCN(Cc4ccc(-c5ncccc5-c5ccccc5)cc4)CC3)c2c1 [compound 1] | downregulation of pAkt1 and pAkt2 |  |  |  |  |  |  |  |  |  |  |  |  |  |  |  |  | Ki ([1]; Ki Akt1): 6 ± 2 nM; Ki ([1]; Ki Akt1, Mean, mean of replicates): 5.77 nM; Ki ([1]; Ki Akt1, individual determinations, single replicates): 3.95 nM and 5.28 nM and 8.08 nM; kinact/KI ([1]; read-out: kinact /Ki Akt1): 38000 ± 10000 M⁻¹ s⁻¹; kinact/KI ([1]; read-out: kinact /Ki Akt1, Mean, mean of replicates): 36000 M⁻¹ s⁻¹; kinact/KI ([1]; read-out: kinact /Ki Akt1, individual determinations, single replicates): 36000 M⁻¹ s⁻¹; kinact ([1]; read-out: kinact Akt1): 0.0002 s⁻¹; kinact ([1]; read-out: kinact Akt1, individual determinations, single replicates): 0.00015 s⁻¹; kinact Akt1, individual determinations ([1]; single replicates): 0.015 min⁻¹ and 0.011 min⁻¹
2 | C=CC(=O)Nc1ccc2[nH]c(=O)n(C3CCN(Cc4ccc(-c5ncc(Cc6cn[nH]c6)cc5-c5ccccc5)cc4)CC3)c2c1 [compound 14] | pAkt1 signal remained stable | 29 ± 4 nM | 29.3 nM | 35.5 nM and 27.7 nM and 30 nM and 24.2 nM | 13000 ± 2000 M⁻¹ s⁻¹ | 11000 M⁻¹ s⁻¹ | 0.000367 s⁻¹ | 0.000367 s⁻¹ | 0.0004 s⁻¹ | 0.023 min⁻¹ and 0.019 min⁻¹ and 0.022 min⁻¹ | 11 ± 2 nM | 10.4 nM | 13.2 nM and 8 nM and 9.9 nM | 25000 ± 6000 M⁻¹ s⁻¹ | 0.000267 s⁻¹ | 0.0002 s⁻¹ | 0.015 min⁻¹ and 0.017 min⁻¹ | kinact/KI ([4]; read-out: kinact /Ki Akt2, individual determinations, single replicates): 15000 M⁻¹ s⁻¹; kinact ([4]; read-out: kinact Akt2, Mean, mean of replicates): 0.00025 s⁻¹; modified cysteine residues in Akt2 (MS/MS) [5]: Cys297, Cys311, and Cys124
3 | C=CC(=O)Nc1ccc2[nH]c(=O)n(C3CCN(Cc4ccc(-c5ncc(Cc6ccc(N)nc6)cc5-c5ccccc5)cc4)CC3)c2c1 [compound 20] |  | 53 ± 4 nM | 70.1 nM | 71.5 nM and 73.4 nM and 65.4 nM | 10000 ± 3000 M⁻¹ s⁻¹ | 8000 M⁻¹ s⁻¹ | 0.000733 s⁻¹ | 0.000767 s⁻¹ | 0.00055 s⁻¹ | 0.061 min⁻¹ | 95 ± 14 nM | 94.4 nM | 98.6 nM and 101 nM and 71.2 nM and 107 nM | 4000 ± 1000 M⁻¹ s⁻¹ | 0.00035 s⁻¹ | 0.000383 s⁻¹ | 0.025 min⁻¹ and 0.022 min⁻¹ and 0.015 min⁻¹ | kobs (mean) ([3]; Akt3 + 20, concentration 2.5 nM): 5.68e-05 s⁻¹; kobs (mean) ([3]; Akt3 + 20, concentration 4.9 nM): 4.71e-05 s⁻¹; kobs (mean) ([3]; Akt3 + 20, concentration 9.9 nM): 8.01e-05 s⁻¹; kobs (mean) ([3]; Akt3 + 20, concentration 39.5 nM): 0.00023 s⁻¹; kobs (mean) ([3]; Akt3 + 20, concentration 123.8 nM): 0.000418 s⁻¹; kobs (mean) ([3]; Akt3 + 20, concentration 247.5 nM): 0.000431 s⁻¹; kobs (mean) ([3]; Akt3 + 20, concentration 371.3 nM): 0.000653 s⁻¹; kinact/KI ([3]; read-out: kinact /Ki Akt3, Mean, mean of replicates): 11000 M⁻¹ s⁻¹; kinact/KI ([4]; read-out: kinact /Ki Akt2, Mean, mean of replicates): 4000 M⁻¹ s⁻¹; modified cysteine residues in Akt3 (MS/MS) [6]: Cys293
